Experimental data from ChEMBL document CHEMBL4507299, “Data for DCP probe PF-04554878” (2021).

Key:
[1] = target: Ephrin type-A receptor 8 (Homo sapiens) (UniProt P29322)
[2] = target: AP2-associated protein kinase 1 (Homo sapiens) (UniProt Q2M2I8)
[3] = target: Cyclin-G-associated kinase (Homo sapiens) (UniProt O14976)
[4] = target: MAP kinase-interacting serine/threonine-protein kinase 2 (Homo sapiens) (UniProt Q9HBH9)
[5] = target: Alpha-2C adrenergic receptor (Homo sapiens) (UniProt P18825); conditions: Compound concentration 10.0 uM
[6] = target: 1-phosphatidylinositol 3-phosphate 5-kinase (Homo sapiens) (UniProt Q9Y2I7)
[7] = target: Phosphatidylinositol 4-phosphate 5-kinase type-1 alpha (Homo sapiens) (UniProt Q99755)
[8] = target: Inhibitor of nuclear factor kappa-B kinase subunit alpha (Homo sapiens) (UniProt O15111)
[9] = target: Muscarinic acetylcholine receptor M2 (Homo sapiens) (UniProt P08172); conditions: Compound concentration 10.0 uM
[10] = target: Serine/threonine-protein kinase TAO1 (Homo sapiens) (UniProt Q7L7X3)
[11] = target: Megakaryocyte-associated tyrosine-protein kinase (Homo sapiens) (UniProt P42679)
[12] = target: Cyclin-dependent kinase 4 (Homo sapiens) (UniProt P11802)
[13] = target: Rhodopsin kinase GRK7 (Homo sapiens) (UniProt Q8WTQ7)
[14] = target: Phosphatidylinositol 4-phosphate 3-kinase C2 domain-containing subunit beta (Homo sapiens) (UniProt O00750)
[15] = target: Phosphatidylinositol 4,5-bisphosphate 3-kinase catalytic subunit beta isoform (Homo sapiens) (UniProt P42338)
[16] = target: Proto-oncogene tyrosine-protein kinase receptor Ret (Homo sapiens) (UniProt P07949)
[17] = target: Serine/threonine-protein kinase Nek1 (Homo sapiens) (UniProt Q96PY6)
[18] = target: Receptor-interacting serine/threonine-protein kinase 4 (Homo sapiens) (UniProt P57078)
Focal adhesion kinase 1 = Focal adhesion kinase 1 (Homo sapiens, UniProt Q05397)
[19] = target: 5-hydroxytryptamine receptor 3A (Homo sapiens) (UniProt P46098); conditions: Compound concentration 10.0 uM
[20] = target: Tyrosine-protein kinase Blk (Homo sapiens) (UniProt P51451)
[21] = target: Tyrosine-protein kinase Tec (Homo sapiens) (UniProt P42680)
[22] = target: SRSF protein kinase 1 (Homo sapiens) (UniProt Q96SB4)
[23] = test system: Mast/stem cell growth factor receptor Kit (Homo sapiens), P10721 [D816V]
[24] = target: Aurora kinase B (Homo sapiens) (UniProt Q96GD4)
[25] = target: Myosin light chain kinase family member 4 (Homo sapiens) (UniProt Q86YV6)
[26] = target: T1, Tyrosine-protein kinase JAK3 (Homo sapiens) (UniProt P52333)
T1 sequence (whole entry): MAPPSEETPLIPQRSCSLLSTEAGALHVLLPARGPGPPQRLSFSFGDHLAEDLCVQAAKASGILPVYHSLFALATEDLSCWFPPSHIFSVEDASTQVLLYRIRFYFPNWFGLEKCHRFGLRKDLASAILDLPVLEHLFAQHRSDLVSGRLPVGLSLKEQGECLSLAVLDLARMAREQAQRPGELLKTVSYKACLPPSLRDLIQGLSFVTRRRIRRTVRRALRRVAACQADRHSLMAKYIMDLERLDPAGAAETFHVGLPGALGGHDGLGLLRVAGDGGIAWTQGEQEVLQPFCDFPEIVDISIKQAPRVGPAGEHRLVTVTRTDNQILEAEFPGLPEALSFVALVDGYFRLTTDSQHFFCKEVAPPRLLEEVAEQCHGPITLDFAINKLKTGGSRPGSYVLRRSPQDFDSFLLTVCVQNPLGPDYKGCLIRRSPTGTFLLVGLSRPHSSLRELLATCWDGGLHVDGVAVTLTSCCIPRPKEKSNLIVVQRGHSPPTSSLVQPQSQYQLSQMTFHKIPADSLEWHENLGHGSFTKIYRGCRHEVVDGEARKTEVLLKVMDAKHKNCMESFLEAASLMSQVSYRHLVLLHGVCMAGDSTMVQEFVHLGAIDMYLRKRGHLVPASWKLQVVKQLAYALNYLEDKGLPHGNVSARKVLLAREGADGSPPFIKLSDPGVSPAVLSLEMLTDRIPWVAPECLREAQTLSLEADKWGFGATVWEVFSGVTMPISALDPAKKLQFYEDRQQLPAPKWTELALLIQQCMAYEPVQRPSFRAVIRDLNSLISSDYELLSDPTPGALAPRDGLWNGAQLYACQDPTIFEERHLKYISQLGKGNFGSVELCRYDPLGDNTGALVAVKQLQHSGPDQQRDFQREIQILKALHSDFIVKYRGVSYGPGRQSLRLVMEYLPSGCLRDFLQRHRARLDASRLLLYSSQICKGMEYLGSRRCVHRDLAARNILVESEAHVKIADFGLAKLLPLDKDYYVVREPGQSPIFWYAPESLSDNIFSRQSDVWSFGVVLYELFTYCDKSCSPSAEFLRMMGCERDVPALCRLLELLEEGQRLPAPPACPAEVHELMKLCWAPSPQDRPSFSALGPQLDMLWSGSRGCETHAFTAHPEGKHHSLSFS

[27] = target: Alpha-1D adrenergic receptor (Homo sapiens) (UniProt P25100); conditions: Compound concentration 10.0 uM
[28] = target: Peripheral plasma membrane protein CASK (Homo sapiens) (UniProt O14936)
[29] = target: Calcium/calmodulin-dependent protein kinase type II subunit alpha (Homo sapiens) (UniProt Q9UQM7)
[30] = Compound concentration 100.0 nM
[31] = Compound concentration 1000.0 nM

Chain of Receptor-interacting serine/threonine-protein kinase 4 (Homo sapiens) (P57078 whole entry): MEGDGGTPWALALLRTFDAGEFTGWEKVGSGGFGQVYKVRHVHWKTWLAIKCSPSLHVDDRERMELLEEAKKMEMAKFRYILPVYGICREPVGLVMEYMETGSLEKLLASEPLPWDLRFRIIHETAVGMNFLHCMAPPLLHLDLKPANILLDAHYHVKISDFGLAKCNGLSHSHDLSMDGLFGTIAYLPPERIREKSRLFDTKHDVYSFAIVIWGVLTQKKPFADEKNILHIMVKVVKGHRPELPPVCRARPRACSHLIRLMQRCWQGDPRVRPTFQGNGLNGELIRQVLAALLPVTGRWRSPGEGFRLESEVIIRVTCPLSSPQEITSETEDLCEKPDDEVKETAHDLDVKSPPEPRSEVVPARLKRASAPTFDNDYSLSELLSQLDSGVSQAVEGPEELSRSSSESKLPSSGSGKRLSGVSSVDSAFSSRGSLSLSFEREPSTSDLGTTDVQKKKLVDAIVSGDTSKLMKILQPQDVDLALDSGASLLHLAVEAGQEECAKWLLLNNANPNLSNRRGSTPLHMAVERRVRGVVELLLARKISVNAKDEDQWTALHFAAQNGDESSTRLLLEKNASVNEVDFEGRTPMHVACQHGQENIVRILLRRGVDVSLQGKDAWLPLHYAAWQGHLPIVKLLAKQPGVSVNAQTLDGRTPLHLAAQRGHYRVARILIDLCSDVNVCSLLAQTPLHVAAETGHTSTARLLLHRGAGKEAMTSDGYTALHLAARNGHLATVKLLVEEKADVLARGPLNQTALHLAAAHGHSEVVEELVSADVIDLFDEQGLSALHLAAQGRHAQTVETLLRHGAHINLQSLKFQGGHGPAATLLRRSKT
Chain of Tyrosine-protein kinase Tec (Homo sapiens) (P42680 whole entry): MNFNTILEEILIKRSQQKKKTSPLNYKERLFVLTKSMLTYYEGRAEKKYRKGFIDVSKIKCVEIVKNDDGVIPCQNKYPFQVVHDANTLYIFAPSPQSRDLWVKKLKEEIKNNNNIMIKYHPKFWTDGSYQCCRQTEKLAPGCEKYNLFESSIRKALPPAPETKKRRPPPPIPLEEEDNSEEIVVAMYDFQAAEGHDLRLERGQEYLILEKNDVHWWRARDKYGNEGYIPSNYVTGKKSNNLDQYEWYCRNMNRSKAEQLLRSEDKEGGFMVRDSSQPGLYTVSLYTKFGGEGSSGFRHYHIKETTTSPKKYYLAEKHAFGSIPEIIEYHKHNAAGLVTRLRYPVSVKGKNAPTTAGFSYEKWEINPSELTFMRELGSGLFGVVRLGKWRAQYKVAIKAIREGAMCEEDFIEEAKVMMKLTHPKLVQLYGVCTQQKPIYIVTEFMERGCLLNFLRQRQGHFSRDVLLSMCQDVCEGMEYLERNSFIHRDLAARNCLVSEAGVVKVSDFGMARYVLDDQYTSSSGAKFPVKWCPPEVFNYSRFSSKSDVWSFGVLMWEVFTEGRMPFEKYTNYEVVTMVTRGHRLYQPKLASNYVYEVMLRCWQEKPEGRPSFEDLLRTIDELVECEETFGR
Chain of Alpha-2C adrenergic receptor (Homo sapiens) (P18825 whole entry): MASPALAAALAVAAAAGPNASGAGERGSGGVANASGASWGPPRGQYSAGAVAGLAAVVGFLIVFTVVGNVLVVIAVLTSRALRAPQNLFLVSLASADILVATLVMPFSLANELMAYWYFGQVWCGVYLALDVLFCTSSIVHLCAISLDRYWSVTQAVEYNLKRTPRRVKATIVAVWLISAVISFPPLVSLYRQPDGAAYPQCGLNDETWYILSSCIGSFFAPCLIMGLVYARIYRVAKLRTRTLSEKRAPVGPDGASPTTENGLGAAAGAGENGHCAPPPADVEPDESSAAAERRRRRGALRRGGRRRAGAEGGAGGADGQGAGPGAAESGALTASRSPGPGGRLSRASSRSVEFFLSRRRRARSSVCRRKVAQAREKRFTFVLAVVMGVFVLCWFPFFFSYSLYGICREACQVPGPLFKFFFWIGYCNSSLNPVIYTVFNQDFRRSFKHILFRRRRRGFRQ
Chain of Rhodopsin kinase GRK7 (Homo sapiens) (Q8WTQ7 whole entry, the tested form may be a part): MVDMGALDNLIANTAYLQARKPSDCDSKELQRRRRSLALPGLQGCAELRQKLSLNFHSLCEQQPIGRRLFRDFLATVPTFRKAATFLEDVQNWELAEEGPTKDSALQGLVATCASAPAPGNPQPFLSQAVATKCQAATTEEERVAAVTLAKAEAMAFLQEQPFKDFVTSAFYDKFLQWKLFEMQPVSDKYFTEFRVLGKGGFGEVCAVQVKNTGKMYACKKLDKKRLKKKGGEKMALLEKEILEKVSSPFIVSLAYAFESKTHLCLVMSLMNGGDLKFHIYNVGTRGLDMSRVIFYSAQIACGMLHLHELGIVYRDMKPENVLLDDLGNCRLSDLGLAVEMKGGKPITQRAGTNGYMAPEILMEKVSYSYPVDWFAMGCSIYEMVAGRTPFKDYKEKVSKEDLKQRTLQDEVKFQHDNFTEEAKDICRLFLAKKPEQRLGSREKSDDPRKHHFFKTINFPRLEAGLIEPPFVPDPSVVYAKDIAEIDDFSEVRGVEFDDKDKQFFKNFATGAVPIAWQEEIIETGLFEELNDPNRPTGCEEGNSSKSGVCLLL
Chain of Proto-oncogene tyrosine-protein kinase receptor Ret (Homo sapiens) (P07949 whole entry): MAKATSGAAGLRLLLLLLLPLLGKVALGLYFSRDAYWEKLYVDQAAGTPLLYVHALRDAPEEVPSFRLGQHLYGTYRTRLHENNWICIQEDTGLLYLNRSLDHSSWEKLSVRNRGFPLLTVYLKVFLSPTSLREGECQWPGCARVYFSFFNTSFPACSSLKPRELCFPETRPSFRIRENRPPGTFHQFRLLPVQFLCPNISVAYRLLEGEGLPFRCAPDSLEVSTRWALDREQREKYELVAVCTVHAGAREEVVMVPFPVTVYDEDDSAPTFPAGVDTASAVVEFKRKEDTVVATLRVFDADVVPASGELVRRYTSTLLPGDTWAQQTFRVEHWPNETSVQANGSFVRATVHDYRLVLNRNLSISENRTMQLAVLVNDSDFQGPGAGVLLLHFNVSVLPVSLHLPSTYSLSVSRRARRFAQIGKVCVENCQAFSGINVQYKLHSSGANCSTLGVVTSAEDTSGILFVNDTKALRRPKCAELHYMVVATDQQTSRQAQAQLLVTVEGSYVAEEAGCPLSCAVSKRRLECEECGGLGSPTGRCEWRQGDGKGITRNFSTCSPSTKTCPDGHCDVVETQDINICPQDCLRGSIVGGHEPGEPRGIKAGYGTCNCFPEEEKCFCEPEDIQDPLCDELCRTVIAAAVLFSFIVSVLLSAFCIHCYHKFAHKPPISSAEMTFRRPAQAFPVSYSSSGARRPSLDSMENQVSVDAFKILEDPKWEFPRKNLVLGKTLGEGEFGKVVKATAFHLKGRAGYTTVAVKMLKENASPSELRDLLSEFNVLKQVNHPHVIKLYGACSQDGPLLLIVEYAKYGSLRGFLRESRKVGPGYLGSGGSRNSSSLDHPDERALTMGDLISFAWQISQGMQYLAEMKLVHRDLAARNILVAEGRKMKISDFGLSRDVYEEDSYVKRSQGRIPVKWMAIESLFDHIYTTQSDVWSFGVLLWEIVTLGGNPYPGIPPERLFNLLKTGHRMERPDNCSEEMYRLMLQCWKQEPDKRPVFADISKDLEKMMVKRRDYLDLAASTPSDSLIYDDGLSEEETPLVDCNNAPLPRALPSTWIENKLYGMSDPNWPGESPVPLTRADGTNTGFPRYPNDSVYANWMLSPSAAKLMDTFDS
Chain of MAP kinase-interacting serine/threonine-protein kinase 2 (Homo sapiens) (Q9HBH9 whole entry, looked up): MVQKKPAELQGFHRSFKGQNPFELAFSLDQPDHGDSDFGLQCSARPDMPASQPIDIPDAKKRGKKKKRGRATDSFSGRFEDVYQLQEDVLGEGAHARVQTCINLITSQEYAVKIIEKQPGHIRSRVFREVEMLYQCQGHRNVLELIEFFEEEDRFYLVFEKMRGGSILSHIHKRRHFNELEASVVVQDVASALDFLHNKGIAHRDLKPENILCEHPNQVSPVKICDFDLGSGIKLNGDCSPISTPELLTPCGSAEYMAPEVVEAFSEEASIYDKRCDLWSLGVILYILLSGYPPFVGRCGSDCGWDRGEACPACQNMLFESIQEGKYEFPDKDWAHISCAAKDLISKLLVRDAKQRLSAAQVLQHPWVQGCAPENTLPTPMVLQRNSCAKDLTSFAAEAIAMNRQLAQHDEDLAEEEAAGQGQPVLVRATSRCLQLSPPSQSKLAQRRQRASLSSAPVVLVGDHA
Chain of Inhibitor of nuclear factor kappa-B kinase subunit alpha (Homo sapiens) (O15111 whole entry): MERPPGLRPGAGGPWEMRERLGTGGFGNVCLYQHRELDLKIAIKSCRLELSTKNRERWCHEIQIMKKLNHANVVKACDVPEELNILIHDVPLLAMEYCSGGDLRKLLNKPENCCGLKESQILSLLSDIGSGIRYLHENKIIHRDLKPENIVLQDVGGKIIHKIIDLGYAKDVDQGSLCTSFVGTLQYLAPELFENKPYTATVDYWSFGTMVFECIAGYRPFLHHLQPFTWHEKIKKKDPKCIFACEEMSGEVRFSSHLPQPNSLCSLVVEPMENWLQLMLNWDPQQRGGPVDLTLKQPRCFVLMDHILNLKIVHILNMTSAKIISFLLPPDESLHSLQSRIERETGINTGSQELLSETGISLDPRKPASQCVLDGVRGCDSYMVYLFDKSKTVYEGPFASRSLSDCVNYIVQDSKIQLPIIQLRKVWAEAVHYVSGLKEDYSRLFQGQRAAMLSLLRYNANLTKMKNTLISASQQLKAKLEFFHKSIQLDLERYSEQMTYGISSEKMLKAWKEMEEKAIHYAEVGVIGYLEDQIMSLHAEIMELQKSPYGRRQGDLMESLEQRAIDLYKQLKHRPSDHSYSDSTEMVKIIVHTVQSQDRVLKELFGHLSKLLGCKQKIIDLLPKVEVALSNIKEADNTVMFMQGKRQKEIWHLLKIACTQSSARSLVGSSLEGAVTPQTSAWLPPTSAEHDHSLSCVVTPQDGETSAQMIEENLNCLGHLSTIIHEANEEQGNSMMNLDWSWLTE

SMILES: CNC(=O)c1ccc(Nc2ncc(C(F)(F)F)c(NCc3nccnc3N(C)S(C)(=O)=O)n2)cc1 [DEFACTINIB]
- residual activity [1, 30]: 87%
- residual activity [2, 30]: 80%
- residual activity [3, 30]: 69%
- residual activity [4, 30]: 100%
- inhibition [5]: 4.73%
- residual activity [6, 30]: 100%
- residual activity [7, 30]: 98%
- residual activity [8, 30]: 98%
- inhibition [9]: 19.5%
- residual activity [10, 30]: 50%
- residual activity [11, 30]: 37%
- residual activity [12, 30]: 100%
- residual activity [13, 30]: 97%
- residual activity [14, 30]: 87%
- residual activity [15, 30]: 45%
- residual activity [16, 30]: 60%
- residual activity [17, 30]: 75%
- residual activity [18, 30]: 89%
- residual activity (Focal adhesion kinase 1; [30]): 0.2%
- inhibition [19]: 6.5%
- residual activity [20, 30]: 78%
- residual activity [21, 30]: 100%
- residual activity [22, 30]: 51%
- residual activity [23, 30]: 80%
- residual activity [24, 30]: 73%
- residual activity [25, 30]: 100%
- residual activity [26, 30]: 8.2%
- inhibition [27]: 4.13%
- residual activity [28, 30]: 88%
- residual activity [29, 30]: 83%

SMILES: CN(c1ccnc(CNc2nc(Nc3ccc4c(c3)CC(=O)N4)ncc2C(F)(F)F)n1)S(C)(=O)=O [PF-00911705]
- residual activity [1, 31]: 100%
- residual activity [2, 31]: 27%
- residual activity [3, 31]: 66%
- residual activity [4, 31]: 91%
- inhibition [5]: 4.91%
- residual activity [6, 31]: 100%
- residual activity [7, 31]: 12%
- residual activity [8, 31]: 57%
- inhibition [9]: -2.08%
- residual activity [10, 31]: 3.7%
- residual activity [11, 31]: 65%
- residual activity [12, 31]: 93%
- residual activity [13, 31]: 29%
- residual activity [14, 31]: 79%
- residual activity [15, 31]: 100%
- residual activity [16, 31]: 49%
- residual activity [17, 31]: 51%
- residual activity [18, 31]: 6%
- residual activity (Focal adhesion kinase 1; [31]): 4.9%
- inhibition [19]: 1.24%
- residual activity [20, 31]: 40%
- residual activity [21, 31]: 100%
- residual activity [22, 31]: 17%
- residual activity [23, 31]: 28%
- residual activity [24, 31]: 9.9%
- residual activity [25, 31]: 35%
- residual activity [26, 31]: 1.9%
- inhibition [27]: 15.9%
- residual activity [28, 31]: 85%
- residual activity [29, 31]: 67%
